How the values were obtained:
TNFα = assay: LPS-induced TNF alpha release in mice; format: in vivo, Balb C ByJ mice; settings: oral route, 30 min before 1 mg/kg i.p. LPS; serum 2 hours after LPS; ELISA
Experimental: 7 week-old Balb C ByJ mice (24-28 g) were administered, either by i.p. (5 ml/kg) or oral (10 ml/kg) administration, with vehicle or test article. 30 minutes later these animals were challenged with an intraperitoneal injection of 1 mg/kg LPS. 2 hours after LPS challenge, blood samples were collected under light isoflurane anaesthesia into normal tubes by retro-orbital puncture. Samples were allowed to clot at room temperature and then spun at 6000 g for 3 min at 4° C. Serum was stored at −20° C. until use. Serum TNFα and IL-10 levels were analysed in duplicate by ELISA technique.

[1] = test system: dextran sulphate-induced colonic inflammation; assay: Dextran sulphate-induced IBD model; format: in vivo, BDF1 male mice; settings: rectal route twice a day for 5 days
Experimental: 8-10 week-old BDF1 male mice (˜30 g) were housed in normal conditions. At the start of the study, normal water was exchanged for a 2.5% dextran sulphate solution to induce colonic inflammation. Concurrently actarit and the positive control budesonide were administered rectally twice a day for 5 days. On day 6 the animals were sacrificed and the large intestine was removed. The lower two-thirds were assessed for histological severity (scoring system; 1 mild to 4 severe).

`CC(=O)Nc1ccc(CC(=O)O)cc1` [actarit, 4-(acetylamino)benzeneacetic acid] was tested, and the “inhibition of serum TNFalpha levels after intraperitoneal LPS administration” value (TNFα) was “dose-dependant inihibition of TNFalpha levels”, the “pathological and histological lesions” value ([1]; 2.5% dextran sulphate in drinking water, large intestine assessed day 6) was “can ameliorate pathological and histological lesions” and the “gross histological scores (scoring system; 1 mild to 4 severe)” value ([1]; 2.5% dextran sulphate, compared with 0.1 mg/kg rectal budesonide) was “reduced gross histological scores induced by dextran sulphate in the drinking water of BDF1 mice, over and above the effect seen for 0.1 mg/kg rectal budesonide”.
